For twelve compounds, IC50 results are on record in patent publication US20040082635A1, “Fused cyclic compounds and medicinal use thereof” (priority 2001, published 2004).

For the experiment, the target named is T1, HCV polymerase (Hepatitis C virus genotype 1b, UniProt P26663).
T1 construct: a region encoding NS5B (591 amino acids; J Virol 1991 Mar, 65(3), 1105-13) was amplified by PCR; 6 His (N); made in house; host or cells: Escherichia coli
T1 sequence (P26663 2420-3010): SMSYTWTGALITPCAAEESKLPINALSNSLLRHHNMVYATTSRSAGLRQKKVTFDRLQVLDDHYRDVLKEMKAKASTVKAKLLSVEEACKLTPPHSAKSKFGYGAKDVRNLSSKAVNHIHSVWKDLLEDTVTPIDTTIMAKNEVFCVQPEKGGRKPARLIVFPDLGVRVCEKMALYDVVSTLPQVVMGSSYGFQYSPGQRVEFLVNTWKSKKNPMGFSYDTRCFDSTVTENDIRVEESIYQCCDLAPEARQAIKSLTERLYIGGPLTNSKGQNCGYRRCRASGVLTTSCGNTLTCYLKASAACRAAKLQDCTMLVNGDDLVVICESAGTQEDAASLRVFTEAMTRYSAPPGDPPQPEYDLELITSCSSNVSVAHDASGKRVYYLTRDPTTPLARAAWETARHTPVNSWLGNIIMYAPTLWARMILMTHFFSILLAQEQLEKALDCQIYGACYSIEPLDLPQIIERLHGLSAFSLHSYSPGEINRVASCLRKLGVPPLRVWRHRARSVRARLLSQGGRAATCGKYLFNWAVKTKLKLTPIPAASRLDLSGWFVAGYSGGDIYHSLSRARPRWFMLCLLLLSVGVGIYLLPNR
As to the kind of experiment: biochemical. Particulars: read-out: HCV polymerase inhibitory activity IC50.
Usually IC50 stands for the concentration needed to halve the response being measured. As for `O=C(O)c1ccc2c(c1)nc(-c1ccc(OCc3cc(C(=O)N4CCSCC4)ccc3-c3ccc(Cl)cc3)cc1F)n2C1CCCCC1` [Example 291, 2-{4-[2-(4-chlorophenyl)-5-thiomorpholinocarbonylbenzyloxy]-2-fluorophenyl}-1-cyclohexylbenzimidazole-5-carboxylic acid], the IC50 came out at 16 nM. Take `O=C(O)CNC(=O)c1ccc(-c2ccc(Cl)cc2)c(COc2ccc(-c3nc4cc(C(=O)O)ccc4n3C3CCCCC3)c(F)c2)c1` [Example 292, 2-{4-[3-(carboxymethylcarbamoyl)-6-(4-chlorophenyl)benzyloxy]-2-fluorophenyl}-1-cyclohexylbenzimidazole-5-carboxylic acid]: the IC50 stood at 15 nM.

With `O=C(O)CCc1ccc(-c2ccc(Cl)cc2COc2ccc(-c3nc4cc(C(=O)O)ccc4n3C3CCCCC3)cc2)cc1` [Example 293, 2-{4-[2-{4-(2-carboxyethyl)phenyl}-5-chlorobenzyloxy]phenyl}-1-cyclohexylbenzimidazole-5-carboxylic acid], the IC50 amounted to 34 nM. Under `O=C(O)c1ccc2c(c1)nc(-c1ccc(OCc3cc(Cl)ccc3-c3ccc(CO)cc3)cc1)n2C1CCCCC1` [Example 294, 2-{4-[3-chloro-6-(4-hydroxymethylphenyl)benzyloxy]phenyl}-1-cyclohexylbenzimidazole-5-carboxylic acid] stands 32 nM; under `COCc1ccc(-c2ccc(Cl)cc2COc2ccc(-c3nc4cc(C(=O)O)ccc4n3C3CCCCC3)cc2)cc1` [Example 295, 2-{4-[3-chloro-6-(4-methoxymethylphenyl)benzyloxy]phenyl}-1-cyclohexylbenzimidazole-5-carboxylic acid], 45 nM; under `O=C(O)c1cccc(-c2ccc(Cl)cc2COc2ccc(-c3nc4cc(C(=O)O)ccc4n3C3CCCCC3)cc2)c1` [Example 296, 2-{4-[2-(3-carboxyphenyl)-5-chlorobenzyloxy]phenyl}-1-cyclohexylbenzimidazole-5-carboxylic acid], 34 nM. As for `CSc1ccc(-c2ccc(Cl)cc2)c(COc2ccc(-c3nc4cc(C(=O)O)ccc4n3C3CCCCC3)cc2)c1` [Example 297, 2-{4-[2-(4-chlorophenyl)-5-methylthiobenzyloxy]phenyl}-1-cyclohexylbenzimidazole-5-carboxylic acid], the IC50 stood at 22 nM. Regarding `C[S+]([O-])c1ccc(-c2ccc(Cl)cc2)c(COc2ccc(-c3nc4cc(C(=O)O)ccc4n3C3CCCCC3)cc2)c1` (stereo not drawn) [Example 298, 2-{4-[2-(4-chlorophenyl)-5-methylsulfinylbenzyloxy]phenyl}-1-cyclohexylbenzimidazole-5-carboxylic acid], the IC50 worked out at 11 nM. As for `N#Cc1ccc(-c2ccc(Cl)cc2)c(COc2ccc(-c3nc4cc(C(=O)O)ccc4n3C3CCCCC3)cc2)c1` [Example 299, 2-{4-[2-(4-chlorophenyl)-5-cyanobenzyloxy]phenyl}-1-cyclohexyl-benzimidazole-5-carboxylic acid], the IC50 is 18 nM. With `CN(C)C(=O)c1ccc(C(Oc2ccc(-c3nc4cc(C(=O)O)ccc4n3C3CCCCC3)c(F)c2)c2ccc(C(=O)N(C)C)cc2)cc1` [Example 301] the figure was 17 nM; with `COC(=O)c1ccc2c(c1)nc(-c1ccc(OCc3cc(C(=O)N(C)C)ccc3-c3ccc(Cl)cc3)cc1F)n2C1CCCCC1` [Example 303, methyl 2-{4-[2-(4-chlorophenyl)-5-(dimethylcarbamoyl)benzyloxy]-2-fluorophenyl}-1-cyclohexylbenzimidazole-5-carboxylate], 100 nM; with `O=C(O)c1ccc(-c2ccc(Cl)cc2)c(COc2ccc(-c3nc4cc(C(=O)O)ccc4n3C3CCCCC3)c(F)c2)c1` [Example 305, 2-{4-[5-carboxy-2-(4-chlorophenyl)benzyloxy]-2-fluorophenyl}-1-cyclohexylbenzimidazole-5-carboxylic acid], 10 nM.
